Measurements as given in patent US7223759B2, “Antibacterial 3,5-diaminopiperidine-substituted aromatic and heteroaromatic compounds” (Anadys Pharmaceuticals, Inc., priority 2003, dated 2007).
Like-named read-outs stand apart in the source and are kept apart here.

Tested on: Escherichia coli (ATCC25922) or Staphylococcus aureus (ATCC25923)
Assay: Antibacterial MIC, microdilution method in Mueller-Hinton medium
Type: cell-based
Conditions: for MIC: Escherichia coli, 18 h, read-out: Potency (MIC)
How it was run: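 Read after 18 h incubation at 35° C, MIC is the lowest compound level that blocked growth. Compounds were tested in duplicate over 64–0.5 μg/ml two-fold dilutions using Mueller-Hinton microdilution per NCCLS standard.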

[1] = MIC in E. coli or S. aureus, two-fold serial dilutions 64 to 0.5 μg/ml in duplicate, 18 hours of incubation at 35° C.

SMILES	MIC [µg/mL]	MIC [1] [µg/mL]	also measured
N[C@@H]1C[C@H](N)CN(c2nc(Nc3ccc(C(=O)Nc4cccc(CO)c4)c(O)c3)nc(N3C[C@H](N)C[C@H](N)C3)n2)C1 [N-[3-hydroxy-4-(3-hydroxymethyl-phenylcarbamoyl)-phenyl]-4,6-Bis-((3R,5S)-3,5-diamino-piperidin-1-yl)-[1,3,5]triazine-2-amine]	< 64	–	–
Cl.O=C(Nc1ccc(Nc2nc(N3CCCCC3)nc(N3CCCCC3)n2)cc1O)c1c(Cl)cccc1Cl [N-[4-(2,6-dichloro-benzoylamino)-3-hydroxy-phenyl]-4,6-Bis-((3R,5S)-3,5-diamine-piperidin-1-yl)-[1,3,5]triazine-2-amine]	–	< 64	–
N[C@@H]1C[C@H](N)CN(c2nc(Nc3ccc(C(=O)CC(=O)Nc4ccc(SC(F)(F)F)cc4)cc3)nc(N3C[C@@H](N)C[C@H]3CO)n2)C1 [3-{4-[4-((2S,4S)-4-Amino-2-hydroxymethyl-pyrrolidin-1-yl)-6-((3R,5S)-3,5-diamino-piperidin-1-yl)-[1,3,5]triazin-2-ylamino]-phenyl}-3-oxo-N-(4-trifluoromethylsulfanyl-phenyl)-propionamide]	< 16	–	–
N[C@@H]1C[C@H](N)CN(c2nc(Nc3ccc(C(=O)CC(=O)Nc4ccccc4Cl)cc3)nc(N3C[C@H](N)C[C@H](N)C3)n2)C1 [N-{4-[2-(2-chloro-phenylcarbamoyl)-acetyl]-phenyl}-4,6-Bis-((3R,5S)-3,5-diamino-piperidin-1-yl)-[1,3,5]triazine-2-amine]	–	< 16	–
N[C@@H]1C[C@H](N)CN(c2nc(Nc3ccc(C(=O)Nc4cccc(OC(F)(F)F)c4)c(O)c3)nc(N3C[C@H](N)C[C@H](N)C3)n2)C1 [N-[3-hydroxy-4-(3-trifluoromethoxy-phenylcarbamoyl)-phenyl]-4,6-Bis-((3R,5S)-3,5-diamino-piperidin-1-yl)-[1,3,5]triazine-2-amine]	< 16	–	–
Cc1cc(=O)oc2cc(Nc3nc(N4C[C@H](N)C[C@H](N)C4)nc(N4CC[C@H](O)[C@@H]4CN)n3)ccc12 [7-[4-((2S,3S)-2-Aminomethyl-3-hydroxy-pyrrolidin-1-yl)-6-((3R,5S)-3,5-diamino-piperidin-1-yl)-[1,3,5]triazin-2-ylamino]-4-methyl-chromen-2-one]	–	> 64	–
N[C@@H]1C[C@H](N)CN(c2nc(Nc3ccc(C(=O)CC(=O)Nc4ccc(F)c(F)c4)cc3)nc(N3C[C@H](N)C[C@H](N)C3)n2)C1 [N-{4-[2-(3,4-difluoro-phenylcarbamoyl)-acetyl]-phenyl}-4,6-Bis-((3R,5S)-3,5-diamino-piperidin-1-yl)-[1,3,5]triazine-2-amine]	< 16	–	–
COC(=O)CC(=O)Nc1ccc(Nc2nc(N3C[C@H](N)C[C@H](N)C3)nc(N3C[C@H](N)C[C@H](N)C3)n2)cc1O [N-{4-[4,6-Bis-((3R,5S)-3,5-diamino-piperidin-1-yl)-[1,3,5]triazin-2-ylamino]-2-hydroxy-phenyl}-malonamic acid methylester]	–	> 64	–
Cc1cc(Nc2nc(N3CCCCC3)nc(N3CCCCC3)n2)ccc1N1C(=O)c2ccc(Cl)cc2C1=O.Cl [N-[4-(5-chloro-1,3-dioxo-1,3-dihydro-isoindol-22-yl)-3-methyl-phenyl]-4,6-Bis-((3R,5S)-3,5-diamino-piperidin-1-yl)-[1,3,5]triazine-2-amine]	–	< 64	–
N[C@@H]1C[C@H](N)CN(c2nc(Nc3ccc4c(c3)-c3ccccc3C4=O)nc(N3C[C@@H](N)[C@@H](N)C3)n2)C1 [3-[4-((3R,5S)-3,5-Diamino-piperidin-1-yl)-6-((3R,4S)-3,4-diamino-pyrrolidin-1-yl)-[1,3,5]triazin-2-ylamino]-fluoren-9-one]	< 64	–	–
Cc1ccc(C(=O)Nc2ccc(Nc3nc(N4CCCCC4)nc(N4CCCC4)n3)cc2O)cc1.Cl [drawing 285, NM-{4-[4-((3R,5S)-3,5-Diamino-piperidin-1-yl)-6-((3R,4S)-3,4-diamino-pyrrolidin-1-yl)-[1,3,5]triazin-2-ylamino]-2-hydroxy-phenyl}-4-methyl-benzamide]	–	–	Potency (MIC) [1]: + (+ means MIC<64 μg/ml in E. coli or S. aureus)
N[C@@H]1C[C@H](N)CN(c2nc(Nc3ccc(C(=O)CC(=O)Nc4ccccc4)cc3)nc(N3C[C@H](N)C[C@H](N)C3)n2)C1 [N-[4-(2-phenylcarbamoyl-acetyl)-phenyl]-4,6-Bis-((3R,5S)-3,5-diamino-piperidin-1-yl)-[1,3,5]triazine-2-amine]	< 16	–	–
N[C@@H]1C[C@H](N)CN(c2nc(Nc3ccc(NC(=O)C45CC6CC(CC(C6)C4)C5)c(O)c3)nc(N3C[C@H](N)C[C@H](N)C3)n2)C1 [N-{4-[(adamantane-1-carbonyl)-amino]-3-hydroxy-phenyl}-4,6-Bis-((3R,5S)-3,5-diamino-piperidin-1-yl)-[1,3,5]triazine-2-amine]	–	< 16	–
Cl.c1ccc(N2CCN(c3nc(N4CCCCC4)nc(N4CCCCC4)n3)CC2)nc1 [2-[4-(4-Fluoro-phenyl)-piperiazin-1-yl]-4,6-Bis-((3R,5S)-3,5-diamino-piperidin-1-yl)-[1,3,5]triazine]	–	> 64	–
N[C@@H]1C[C@H](N)CN(c2nc(NNC3=NCCCN3)nc(N3C[C@H](N)C[C@H](N)C3)n2)C1 [N-(4,6-Bis-((3R,5S)-3,5-diamino-piperidin-1-yl)-[1,3,5]triazin-2-yl)-N′-(1,4,5,6-tetrahydro-pyrimidin-2-yl)-hydrazine]	> 64	–	–
N[C@@H]1C[C@H](N)CN(c2ncnc(Nc3ccc(NC(=O)c4ccc5ccccc5c4O)cc3)n2)C1 [1-Hydroxy-naphthalene-2-carboxylicacid {4-[4-((3S,5R)-3,5-diamino-piperidin-1-yl)-[1,3,5]triazin-2-ylamino]-phenyl}-amide]	< 16	–	–
N[C@@H]1C[C@H](N)CN(c2nc(Nc3ccc(NC(=O)c4ccc5ccccc5c4)c(O)c3)nc(N3C[C@H](N)C[C@H](N)C3)n2)C1 [N-{3-hydroxy-4-[(naphthalene-2-carbonyl)-amino]-phenyl}-4,6-Bis-((3R,5S)-3,5-diamino-piperidin-1-yl)-[1,3,5]triazine-2-amine]	–	< 64	–
N[C@@H]1C[C@H](N)CN(c2nc(Nc3ccc(NC(=O)c4cc5cccc(O)c5cc4O)cc3)nc(N3C[C@H](N)C[C@H](N)C3)n2)C1 [N-{4-[(3,5-dihydroxy-naphthalene-2-carbonyl)-amino]-phenyl}-4,6-Bis-((3R,5S)-3,5-diamino-piperidin-1-yl)-[1,3,5]triazine-2-amine]	–	< 64	–
COc1nc(Nc2ccc(N(Cc3ccccc3)S(=O)(=O)c3ccc(C)cc3)c(O)c2)nc(N2CCCCC2)n1.Cl [N-Benzyl-N-{4-[4-((3R,5S)-3,5-diamino-piperidin-1-yl)-6-methoxy-[1,3,5]triazin-2-ylammino]-2-hydroxy-phenyl}-4-methyl-benzenesulfonamide]	–	< 16	–
Cc1ccc(S(=O)(=O)N(Cc2ccccc2)c2ccc(Nc3nc(N(CCN)CCN)nc(N4C[C@H](N)C[C@H](N)C4)n3)c(O)c2)cc1 [N-Benzyl-N-{4-[4-[bis-(2-amino-ethyl)-amino]-6-((3R,5S)-3,5-diamino-piperidin-1-yl)-[1,3,5]triazin-2-ylamino]-3-hydroxy-phenyl}-4-methyl-benzenesulfonamide]	< 64	–	–
N[C@@H]1C[C@H](N)CN(c2nc(Nc3ccc(NC(=O)c4ccc(Cl)cc4O)c(Br)c3)nc(N3C[C@H](N)C[C@H](N)C3)n2)C1 [N-[3-bromo-4-(4-chloro-2-hydroxy-benzoylamino)-phenyl]-4,6-Bis-((3R,5S)-3,5-diamino-piperidin-1-yl)-[1,3,5]triazine-2-amine]	< 16	–	–
Cc1cc(Nc2nc(N3C[C@H](N)C[C@H](N)C3)nc(N3C[C@H](N)C[C@H](N)C3)n2)ccc1NC(=O)c1ccc(O)cc1O [N-[4-(2,4-dihydroxy-benzoylamino)-3-methyl-phenyl]-4,6-Bis-((3R,5S)-3,5-diamino-piperidin-1-yl)-[1,3,5]triazine-2-amine]	–	< 16	–
N[C@@H]1C[C@H](N)CN(c2nc(Nc3ccc(S(=O)(=O)c4ccc([N+](=O)[O-])cc4)cc3)nc(N3C[C@H](N)C[C@H](N)C3)n2)C1 [N-[4-(4-nitro-benzenesulfonyl)-phenyl]-4,6-Bis((3R,5S)-3,5-diamino-piperidin-1-yl)-[1,3,5]triazine-2-amine]	< 64	–	–
N[C@@H]1C[C@H](N)CN(c2nc(Nc3nc4ccccc4s3)nc(N3C[C@H](N)C[C@H](N)C3)n2)C1 [N-benzothiazol-2-yl-4,6-Bis-((3R,5S)-3,5-diamino-piperidin-1-yl)-[1,3,5]triazine-2-amine]	< 64	–	–
Cc1cc(C)cc(Nc2nc(N3C[C@H](N)C[C@H](N)C3)nc(N3C[C@H](N)C[C@H](N)C3)n2)c1 [N-(3,5-dimethyl-phenyl)-4,6-Bis-((3R,5S)-3,5-diamino-piperidin-1-yl)-[1,3,5]triazine-2-amine]	< 64	–	–
Cc1ccc(S(=O)(=O)N(Cc2ccccc2)c2ccc(Nc3nc(N4C[C@H](N)C[C@H](N)C4)nc(N4C[C@H](N)C[C@H](N)C4)n3)cc2O)cc1 [N-{4-[benzyl-(toluene-4-sulfonyl)-amino]-3-hydroxy-phenyl}-4,6-Bis-((3R,5S)-3,5-diamino-piperidin-1-yl)-[1,3,5]triazine-2-amine]	< 16	–	–
CCCCCC(CC)C(=O)Nc1ccc(S(=O)(=O)Nc2ccc(Nc3nc(N4C[C@H](N)C[C@H](N)C4)nc(N4C[C@H](N)C[C@H](N)C4)n3)cc2O)cc1 (stereo partly drawn) [N-{4-[4-(2-ethyl-heptanoylamino)-benzenesulfonylamino]-3-hydroxy-phenyl}-4,6-Bis-((3R,5S)-3,5-diamino-piperidin-1-yl)-[1,3,5]triazine-2-amine]	< 16	–	–
CCCCCC(=O)Nc1ccc(Nc2nc(N3C[C@H](N)C[C@H](N)C3)nc(N3C[C@H](N)C[C@H](N)C3)n2)cc1O [N-(4-hexanoylamino-3-hydroxy-phenyl)-4,6-Bis-((3R,5S)-3,5-diamino-piperidin-1-yl)-[1,3,5]triazine-2-amine]	< 16	–	–
N[C@@H]1C[C@H](N)CN(c2nc(Nc3ccc(-c4ccccc4)cc3)nc(N3C[C@H](N)C[C@H](N)C3)n2)C1 [N-biphenyl-4-yl-4,6-Bis-((3R,5S)-3,5-diamino-piperidin-1-yl)-[1,3,5]triazine-2-amine]	< 64	–	–
